From patent US8586611B2 (priority 2005, dated 2013)

How the values were obtained:
Assay type in all cases: in vivo
[1] = tested on: Phytophthora infestans; assay: whole plant or invertebrate; conditions: tomato late blight, spray 17 h after inoculation
[2] = tested on: Erysiphe graminis f. sp. tritici; assay: Test E: wheat powdery mildew, spray the day before inoculation (disease rating, 100 = 100% disease control); conditions: spray the day before inoculation
Summary of the method: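 Wheat seedlings sprayed to run-off with compound suspended in acetone/water 50/50 with 250 ppm Trem 014 (200 ppm equivalent to 500 g/ha); inoculated next day with Erysiphe graminis f. sp. tritici spore dust. Kept 7 days at 20° C, then rated 0–100% disease control versus controls.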

[3] = tested on: Phytophthora infestans; assay: whole plant or invertebrate; conditions: tomato late blight, spray the day before inoculation
[4] = tested on: Plasmopara viticola; assay: Test B: grape downy mildew, spray 24 h after inoculation (disease rating, 100 = 100% disease control); conditions: spray 24 h after inoculation
Summary of the method: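 Grape seedlings were inoculated with Plasmopara viticola and held 24 h saturated at 20 °C, then sprayed to run-off with compound suspension (acetone/water with 250 ppm Trem 014; 200 ppm ≈ 500 g/ha). After 5 days at 20 °C and 24 h saturation, disease was rated from 0 to 100% control versus untreated.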

[5] = compounds without asterisk (not 40 or 10 ppm)

Row | SMILES | Test D disease rating (100 = 100% disease control, 0 = no disease control) [1, 5] [%] | Test E disease rating (100 = 100% disease control, 0 = no disease control) [2, 5] [%] | Test C disease rating (100 = 100% disease control, 0 = no disease control) [3, 5] [%] | Test B disease rating (100 = 100% disease control, 0 = no disease control) [4, 5] [%] | also measured
1 | CN(C(=O)c1csc(C2CCN(C(=O)Cc3ccccn3)CC2)n1)[C@@H]1CCCc2ccccc21 [compound 205] | 17 | 0 | 75 | 0 | –
2 | Cc1cc(C(F)(F)F)nn1CC(=O)N1CCC(c2nc(C(=O)N(C)C3c4ccccc4CC3O)cs2)CC1 (centres unmarked) [compound 207] | 99 | 0 | 99 | 36 | –
3 | CC(=O)OC1CCC(N(C)C(=O)c2csc(C3CCN(C(=O)Cn4nc(C(F)(F)F)cc4C)CC3)n2)c2ccccc21 (centres unmarked) [compound 212] | – | – | – | – | Test D disease rating (100 = 100% disease control, 0 = no disease control) ([1]; tested at 40 ppm): 99%; Test E disease rating (100 = 100% disease control, 0 = no disease control) ([2]; tested at 40 ppm): 0%; Test C disease rating (100 = 100% disease control, 0 = no disease control) ([3]; tested at 40 ppm): 100%; Test B disease rating (100 = 100% disease control, 0 = no disease control) ([4]; tested at 40 ppm): 97%
4 | COC1CCC(N(C)C(=O)c2csc(C3CCN(C(=O)Cn4nc(C(F)(F)F)cc4C)CC3)n2)c2ccccc21 (centres unmarked) [compound 213] | – | – | – | – | Test D disease rating (100 = 100% disease control, 0 = no disease control) ([1]; tested at 40 ppm): 99%; Test E disease rating (100 = 100% disease control, 0 = no disease control) ([2]; tested at 40 ppm): 0%; Test C disease rating (100 = 100% disease control, 0 = no disease control) ([3]; tested at 40 ppm): 100%; Test B disease rating (100 = 100% disease control, 0 = no disease control) ([4]; tested at 40 ppm): 99%
5 | CN(C(=O)c1csc(C2CCN(C(=O)Cc3cccc(Cl)n3)CC2)n1)[C@@H]1CCCc2ccccc21 [compound 214] | 99 | 0 | 99 | 98 | –
6 | Cc1cc(C)nc(CC(=O)N2CCC(c3nc(C(=O)N(C)[C@@H]4CCCc5ccccc54)cs3)CC2)c1 [compound 215] | 99 | 0 | 100 | 0 | –
7 | Cc1cc(C(F)(F)F)nn1CC(=O)N1CCC(c2noc(C(=O)N(C)[C@H](C)c3ccccc3)n2)CC1 [compound 216] | 16 | 0 | 95 | 72 | –
8 | Cc1cc(C(F)(F)F)nn1CC(=O)N1CCC(n2cc(C(=O)N(C)[C@@H]3CCCc4ccccc43)nn2)CC1 [compound 217] | 40 | 0 | 99 | 52 | –
9 | CNC(=O)OC1CCC(N(C)C(=O)c2csc(C3CCN(C(=O)Cn4nc(C(F)(F)F)cc4C)CC3)n2)c2ccccc21 (centres unmarked) [compound 219] | 99 | 0 | 99 | 69 | –
10 | Cc1cc(C(F)(F)F)nn1CC(=O)N1CCC(c2nc(C(=O)N(C)C3CCc4cc(Cl)ccc43)cs2)CC1 (centres unmarked) [compound 221] | – | – | – | – | Test D disease rating (100 = 100% disease control, 0 = no disease control) ([1]; tested at 10 ppm): 98%; Test E disease rating (100 = 100% disease control, 0 = no disease control) ([2]; tested at 10 ppm): 0%; Test C disease rating (100 = 100% disease control, 0 = no disease control) ([3]; tested at 10 ppm): 99%; Test B disease rating (100 = 100% disease control, 0 = no disease control) ([4]; tested at 10 ppm): 77%
11 | Cc1cc(C(F)(F)F)nn1CC(=O)N1CCC(c2csc(C(=O)N(C)[C@@H]3CCCc4ccccc43)n2)CC1 [compound 223] | – | – | – | – | Test D disease rating (100 = 100% disease control, 0 = no disease control) ([1]; tested at 40 ppm): 99%; Test E disease rating (100 = 100% disease control, 0 = no disease control) ([2]; tested at 40 ppm): 0%; Test C disease rating (100 = 100% disease control, 0 = no disease control) ([3]; tested at 40 ppm): 100%; Test B disease rating (100 = 100% disease control, 0 = no disease control) ([4]; tested at 40 ppm): 99%
12 | Cc1cc(C(F)(F)F)nn1CC(=O)N1CCN(c2nc(C(=O)N(C)[C@@H]3CCCc4ccccc43)ns2)CC1 [compound 224] | – | – | – | – | Test D disease rating (100 = 100% disease control, 0 = no disease control) ([1]; tested at 40 ppm): 99%; Test E disease rating (100 = 100% disease control, 0 = no disease control) ([2]; tested at 40 ppm): 0%; Test C disease rating (100 = 100% disease control, 0 = no disease control) ([3]; tested at 40 ppm): 100%; Test B disease rating (100 = 100% disease control, 0 = no disease control) ([4]; tested at 40 ppm): 93%
13 | Cc1cc(C(F)(F)F)nn1CC(=O)N1CCC(c2nc(C(=O)N(C)[C@@H]3CCCc4ccccc43)no2)CC1 [compound 225] | 99 | 0 | 100 | 83 | –
14 | Cc1nc(C2CCN(C(=O)Cn3nc(C(F)(F)F)cc3C)CC2)sc1C(=O)N(C)[C@@H]1CCCc2ccccc21 [compound 227] | 0 | 0 | 63 | 44 | –
15 | CCC1C=Cc2ccccc2C1N(C)C(=O)c1csc(C2CCN(C(=O)Cn3nc(C(F)(F)F)cc3C)CC2)n1 (centres unmarked) [compound 228] | 99 | 0 | 100 | 88 | –
16 | COC(=O)C1CC(N(C)C(=O)c2csc(C3CCN(C(=O)Cn4nc(C(F)(F)F)cc4C)CC3)n2)c2ccccc21 (centres unmarked) [compound 229] | 90 | 0 | 100 | 97 | –
17 | Cc1cc(C(F)(F)F)nn1CC(=O)N1CCC(c2nc(C(=O)N(C)C3c4ccccc4C=CC3C)cs2)CC1 (centres unmarked) [compound 230] | 94 | 0 | 100 | 87 | –
18 | Cc1cc(C(F)(F)F)nn1CC(=O)N1CCC(c2nc(C(=O)N(C)C3CC(CO)c4ccccc43)cs2)CC1 (centres unmarked) [compound 235] | 99 | 0 | 100 | 94 | –
19 | Cc1cc(C(F)(F)F)nn1CC(=O)N1CCC(c2nc(C(=O)N(C)C(C)(C)c3ccccc3)cs2)CC1 [compound 237] | 99 | 62 | 99 | 81 | –
20 | CN(C(=O)c1csc(C2CCN(C(=O)Cn3nc(C(F)(F)F)cc3C(C)(C)C)CC2)n1)[C@@H]1CCCc2ccccc21 [compound 239] | – | – | – | – | Test D disease rating (100 = 100% disease control, 0 = no disease control) ([1]; tested at 40 ppm): 0%; Test E disease rating (100 = 100% disease control, 0 = no disease control) ([2]; tested at 40 ppm): 0%; Test C disease rating (100 = 100% disease control, 0 = no disease control) ([3]; tested at 40 ppm): 57%; Test B disease rating (100 = 100% disease control, 0 = no disease control) ([4]; tested at 40 ppm): 63%
21 | CC(C)c1cc(C(F)(F)F)nn1CC(=O)N1CCC(c2nc(C(=O)N(C)[C@@H]3CCCc4ccccc43)cs2)CC1 [compound 240] | – | – | – | – | Test D disease rating (100 = 100% disease control, 0 = no disease control) ([1]; tested at 10 ppm): 99%; Test E disease rating (100 = 100% disease control, 0 = no disease control) ([2]; tested at 10 ppm): 0%; Test C disease rating (100 = 100% disease control, 0 = no disease control) ([3]; tested at 10 ppm): 100%; Test B disease rating (100 = 100% disease control, 0 = no disease control) ([4]; tested at 10 ppm): 99%
22 | Cc1cc(C(F)(F)F)nn1CC(=O)N1CCCN(c2nc(C(=O)N(C)[C@@H]3CCCc4ccccc43)cs2)CC1 [compound 241] | 68 | 47 | 99 | 17 | –
23 | Cc1cc(C(F)(F)F)nn1CC(=O)N1CCCN(c2nc(C(=O)N(C)[C@@H]3CCCc4ccccc43)cs2)CC1.Cl [compound 242] | 73 | 0 | 100 | 16 | –
24 | Cc1ccccc1C(C)N(C)C(=O)c1csc(C2CCN(C(=O)Cn3nc(C(F)(F)F)cc3C)CC2)n1 (centres unmarked) [compound 243] | – | – | – | – | Test D disease rating (100 = 100% disease control, 0 = no disease control) ([1]; tested at 40 ppm): 82%; Test E disease rating (100 = 100% disease control, 0 = no disease control) ([2]; tested at 40 ppm): 0%; Test C disease rating (100 = 100% disease control, 0 = no disease control) ([3]; tested at 40 ppm): 86%; Test B disease rating (100 = 100% disease control, 0 = no disease control) ([4]; tested at 40 ppm): 91%
25 | COC(=O)[C@H](c1ccccc1)N(C)C(=O)c1csc(C2CCN(C(=O)Cn3nc(C(F)(F)F)cc3C)CC2)n1 [compound 244] | 93 | 0 | 99 | 100 | –
26 | Cc1cc(C(F)(F)F)nn1CC(=O)N1CCC(c2nc(C(=O)N(C)[C@H](C(=O)O)c3ccccc3)cs2)CC1 [compound 245] | 0 | 0 | 47 | 0 | –
